Structures are written as SMILES. pIC50: −log10 of the molar value. Read-outs that look alike come from different tables or passages of the source. Where only a bound is given, the exact number is not on record here.

The values below come from patent US20230113037A1 (Bayer Aktiengesellschaft, priority 2019, published 2023).

For assay [1], the target named is T1, AHR (Mus musculus, UniProt P30561).
T1 sequence (P30561 1-848 P471L/N533S/M589L): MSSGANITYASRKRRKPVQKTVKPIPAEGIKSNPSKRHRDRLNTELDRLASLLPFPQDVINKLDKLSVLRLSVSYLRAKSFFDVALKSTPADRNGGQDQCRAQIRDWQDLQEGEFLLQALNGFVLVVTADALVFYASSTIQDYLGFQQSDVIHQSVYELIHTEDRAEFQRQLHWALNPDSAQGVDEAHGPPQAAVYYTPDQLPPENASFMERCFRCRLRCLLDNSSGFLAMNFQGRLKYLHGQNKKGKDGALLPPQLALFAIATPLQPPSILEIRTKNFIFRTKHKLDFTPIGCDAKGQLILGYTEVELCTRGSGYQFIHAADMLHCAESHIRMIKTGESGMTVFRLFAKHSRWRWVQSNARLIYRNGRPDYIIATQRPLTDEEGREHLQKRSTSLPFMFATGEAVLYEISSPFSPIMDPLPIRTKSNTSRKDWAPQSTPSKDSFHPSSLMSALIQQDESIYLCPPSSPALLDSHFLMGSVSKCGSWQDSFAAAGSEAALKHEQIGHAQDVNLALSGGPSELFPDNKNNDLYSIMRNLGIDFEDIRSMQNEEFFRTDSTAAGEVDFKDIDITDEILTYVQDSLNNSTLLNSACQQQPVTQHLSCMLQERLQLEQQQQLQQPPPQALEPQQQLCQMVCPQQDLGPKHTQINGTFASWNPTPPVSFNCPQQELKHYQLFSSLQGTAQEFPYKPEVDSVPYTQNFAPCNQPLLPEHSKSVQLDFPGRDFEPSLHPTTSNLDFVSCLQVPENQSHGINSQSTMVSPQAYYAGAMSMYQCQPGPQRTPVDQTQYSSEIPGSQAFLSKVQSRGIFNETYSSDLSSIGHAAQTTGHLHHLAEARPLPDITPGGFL
Briefly: In vitro assay 3: antagonism in mouse cell line (AHR transactivation, firefly luciferase reporter, kynurenic acid prestimulated). It counts as cell-based. The method, boiled down: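 Mouse cells stably carrying a DRE-driven AHR-inducible firefly luciferase reporter were prestimulated with the endogenous agonist kynurenic acid before compound addition. Luciferase read by SteadyGlo; cells without kynurenic acid served as full-inhibition control, with normalization to positive and negative controls. Repeat tests reported as mean or median.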
On the technique in general: In a reporter assay the amount or activity of a reporter protein is the signal.

The target of assay [2] is T2, AHR (Homo sapiens, UniProt P35869).
T2 construct: U87 MG glioblastoma cells (ATCC #HTB-14) endogenously expressing AHR; endogenous in cells; host or cells: U87 MG glioblastoma cells (ATCC #HTB-14)
T2 sequence (P35869 11-848): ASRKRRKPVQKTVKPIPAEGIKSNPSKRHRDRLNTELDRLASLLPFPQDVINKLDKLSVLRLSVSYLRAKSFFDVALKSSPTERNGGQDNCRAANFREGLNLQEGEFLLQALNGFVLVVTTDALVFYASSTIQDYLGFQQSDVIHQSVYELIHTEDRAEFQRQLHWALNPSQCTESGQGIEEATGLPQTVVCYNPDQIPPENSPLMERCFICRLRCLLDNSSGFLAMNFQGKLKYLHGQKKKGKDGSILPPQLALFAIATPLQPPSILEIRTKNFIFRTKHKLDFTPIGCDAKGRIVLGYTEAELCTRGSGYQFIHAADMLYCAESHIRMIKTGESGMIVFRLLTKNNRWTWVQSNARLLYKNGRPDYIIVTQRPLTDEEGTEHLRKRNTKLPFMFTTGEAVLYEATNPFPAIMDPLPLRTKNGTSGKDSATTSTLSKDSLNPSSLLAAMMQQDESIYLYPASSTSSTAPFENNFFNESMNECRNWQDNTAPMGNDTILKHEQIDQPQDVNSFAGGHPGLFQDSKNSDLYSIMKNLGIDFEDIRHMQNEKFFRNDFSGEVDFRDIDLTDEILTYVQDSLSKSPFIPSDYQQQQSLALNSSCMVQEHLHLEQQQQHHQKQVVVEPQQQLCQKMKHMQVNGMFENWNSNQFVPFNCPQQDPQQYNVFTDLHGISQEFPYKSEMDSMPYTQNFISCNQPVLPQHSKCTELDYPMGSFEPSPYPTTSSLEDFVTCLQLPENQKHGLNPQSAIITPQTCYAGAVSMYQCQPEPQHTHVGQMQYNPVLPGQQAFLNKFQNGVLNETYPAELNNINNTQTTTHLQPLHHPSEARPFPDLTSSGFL
Briefly: In vitro assay 1: antagonism in human cell line (AHR transactivation, firefly luciferase reporter, kynurenic acid prestimulated). It counts as cell-based. Particulars: AHR Antagonism Human IC50 [M]. An outline of the steps: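 U87 MG glioblastoma cells with endogenous AHR, stably carrying a DRE-driven firefly luciferase reporter and constitutive Renilla reporter, prestimulated with kynurenic acid before compound addition. Firefly and Renilla read by dual luciferase; Renilla flags toxicity; normalized to controls (150 μM kynurenic acid + 5 μM staurosporine as full inhibition); repeat values averaged or median.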

Where [3] appears, read: mouse Hepa 1c1c7 cells, 200 μM kynurenic acid, 20 hours, read-out: AHR Antagonism Mouse IC50.

What is called pIC50 is −log10 of the IC50, conventionally taken in molar units. A word on the IC50: it is the concentration at which inhibition is half-maximal. Take `CCn1cc(-c2nc3c4ccccc4nc(N[C@@H]4CCCCNC4=O)n3n2)cn1` [Example 67]: the pIC50 at AHR [1] (setting [3]) is 8.26. The molecule also displayed an IC50 on AHR [2] of 6.43e-09 M.
Regarding `Cc1c(-c2nc3c4ccccc4nc(N[C@@H]4CCCCNC4=O)n3n2)cnn1C` [Example 68, (3R)-3-{[2-(1,5-dimethyl-1H-pyrazol-4-yl)[1,2,4]triazolo[1,5-c]quinazolin-5-yl]amino}azepan-2-one], the pIC50 at AHR [1] (read-out: AHR Antagonism Mouse IC50, mouse Hepa 1c1c7 cells, 200 μM kynurenic acid, 20 hours) was 8.07. The molecule further returned an IC50 against AHR [2] of 1.03e-08 M.
Turning to `O=C1NCCCC[C@H]1Nc1nc2ccccc2c2nc(-c3cn[nH]c3)nn12` [Example 69, (3R)-3-{[2-(1H-pyrazol-4-yl)[1,2,4]triazolo[1,5-c]quinazolin-5-yl]amino}azepan-2-one], the pIC50 at AHR [1] (setting [3]) was 6.34. On AHR [2], this molecule came in with an IC50 of 3.59e-07 M.
For `Cc1nc(-c2nc3c4ccccc4nc(N[C@@H]4CCCCNC4=O)n3n2)co1` [Example 70, (3R)-3-{[2-(2-methyl-1,3-oxazol-4-yl)[1,2,4]triazolo[1,5-c]quinazolin-5-yl]amino}azepan-2-one], the pIC50 at AHR [1] (setting [3]) was 7.29. Besides, at AHR [2], the IC50 came to 2.44e-08 M.
The like results for `COc1cccc(-c2nc3c4ccccc4nc(N[C@@H]4CCCCNC4=O)n3n2)c1` [Example 75, (3R)-3-{[2-(3-methoxyphenyl)[1,2,4]triazolo[1,5-c]quinazolin-5-yl]amino}azepan-2-one] were, in that order, 9.44 and 2.57e-09 M.
With `COc1cccc(-c2nc3c4ccccc4nc(N[C@H]4CCCCNC4=O)n3n2)c1` [Example 76, (3S)-3-{[2-(3-methoxyphenyl)[1,2,4]triazolo[1,5-c]quinazolin-5-yl]amino}azepan-2-one], the pIC50 on AHR [1] (setting [3]) was 8.34. The molecule further gave an IC50 against AHR [2] of 4.82e-08 M.
`COc1cccc(-c2nc3c4ccccc4nc(NC4CCCNC4=O)n3n2)c1` (stereo not drawn) [Example 77, 3-{[2-(3-methoxyphenyl)[1,2,4]triazolo[1,5-c]quinazolin-5-yl]amino}piperidin-2-one]: the pIC50 at AHR [1] (setting [3]) was 7.28. This molecule had an IC50 on AHR [2] of 6.52e-08 M.
For `COc1cccc(-c2nc3c4ccccc4nc(N[C@H](CO)C(N)=O)n3n2)c1` [Example 79, N^2-[2-(3-methoxyphenyl)[1,2,4]triazolo[1,5-c]quinazolin-5-yl]-D-serinamide], in that order: 7.28 and 4.9e-08 M.
Consider `COc1cccc(-c2nc3c4ccccc4nc(N[C@@H](C)C(N)=O)n3n2)c1` [Example 81], for which the pIC50 at AHR [1] (setting [3]) was 6.54. The same molecule showed an IC50 against AHR [2] of 4.02e-07 M.
For `COc1cccc(-c2nc3c4ccccc4nc(N[C@H](CC(C)C)C(N)=O)n3n2)c1` [Example 82, N^2-[2-(3-methoxyphenyl)[1,2,4]triazolo[1,5-c]quinazolin-5-yl]-D-leucinamide], in that order: 7.89 and 8.87e-09 M.
For `COc1cccc(-c2nc3c4ccccc4nc(N[C@H](C(N)=O)C(C)C)n3n2)c1` [Example 83, N^2-[2-(3-methoxyphenyl)[1,2,4]triazolo[1,5-c]quinazolin-5-yl]-L-valinamide], in that order: 6.94 and 6.99e-07 M.
The like results for `COc1cccc(-c2nc3c4ccccc4nc(N[C@@H](Cc4ccc(O)cc4)C(N)=O)n3n2)c1` [Example 84, N^2-[2-(3-methoxyphenyl)[1,2,4]triazolo[1,5-c]quinazolin-5-yl]-L-tyrosinamide] were, in that order, 5.86 and 1.01e-06 M.
On to `COc1cccc(-c2nc3c4ccccc4nc(N[C@@H](CO)C(N)=O)n3n2)c1` [Example 85, N^2-[2-(3-methoxyphenyl)[1,2,4]triazolo[1,5-c]quinazolin-5-yl]-L-serinamide], for which, at AHR [1] (setting [3]), the pIC50 is 6.64. On AHR [2], this molecule had an IC50 of 4.95e-07 M.
Regarding `COc1cccc(-c2nc3c4ccccc4nc(NC4(C(N)=O)COC4)n3n2)c1` [Example 87, 3-{[2-(3-methoxyphenyl)[1,2,4]triazolo[1,5-c]quinazolin-5-yl]amino}oxetane-3-carboxamide], the pIC50 at AHR [1] (setting [3]) was 6.55. Also, inhibition against AHR [2] was half-maximal at 4.85e-07 M (IC50).
The like results for `CC[C@@H](Nc1nc2ccccc2c2nc(-c3cccc(OC)c3)nn12)C(N)=O` [Example 88, (2R)-2-{[2-(3-methoxyphenyl)[1,2,4]triazolo[1,5-c]quinazolin-5-yl]amino}butanamide] were, in that order, 9.36 and 2.11e-09 M.
For `COc1cccc(-c2nc3c4ccccc4nc(N[C@@H](C(N)=O)c4ccccc4)n3n2)c1` [Example 89, (2R)-2-{[2-(3-methoxyphenyl)[1,2,4]triazolo[1,5-c]quinazolin-5-yl]amino}-2-phenylacetamide], in that order: 7.89 and 1.29e-08 M.
The like results for `COc1cccc(-c2nc3c4ccccc4nc(N[C@H](Cc4ccccc4)C(N)=O)n3n2)c1` [Example 90, N^2-[2-(3-methoxyphenyl)[1,2,4]triazolo[1,5-c]quinazolin-5-yl]-D-phenylalaninamide] were, in that order, 8.20 and 4.54e-09 M.
On to `COc1cccc(-c2nc3c4ccccc4nc(N[C@H](CO)C(=O)O)n3n2)c1` [Example 91, N-[2-(3-methoxyphenyl)[1,2,4]triazolo[1,5-c]quinazolin-5-yl]-D-serine], for which the pIC50 at AHR [1] (setting [3]) was under 4.70. At AHR [2], this molecule returned an IC50 of over 2e-05 M.
For `COc1cccc(-c2nc3c4ccccc4nc(N[C@H](C)C(N)=O)n3n2)c1` [Example 92, N^2-[2-(3-methoxyphenyl)[1,2,4]triazolo[1,5-c]quinazolin-5-yl]-D-alaninamide], in that order: 8.36 and 8.63e-09 M.
For the molecule `COc1cccc(-c2nc3c4ccccc4nc(N[C@H](CC(C)C)C(=O)O)n3n2)c1` [Example 93, N-[2-(3-methoxyphenyl)[1,2,4]triazolo[1,5-c]quinazolin-5-yl]-D-leucine], the pIC50 at AHR [1] (setting [3]) is 6.37. Besides, half-maximal inhibition against AHR [2] (IC50) required 1.52e-07 M.
`COc1cccc(-c2nc3c4ccccc4nc(N[C@@H](C(N)=O)[C@H](C)OCc4ccccc4)n3n2)c1` [Example 97, O-benzyl-N^2-[2-(3-methoxyphenyl)[1,2,4]triazolo[1,5-c]quinazolin-5-yl]-D-threoninamide]: the pIC50 at AHR [1] (setting [3]) is 7.08. For the same molecule, the IC50 against AHR [2] turned out to be 1.56e-07 M.
For `COc1cccc(-c2nc3c4ccccc4nc(N[C@@H](CCCCNC(=O)OC(C)(C)C)C(N)=O)n3n2)c1` [Example 101, tert-butyl[(5S)-6-amino-5-{[2-(3-methoxyphenyl)[1,2,4]triazolo[1,5-c]quinazolin-5-yl]amino}-6-oxohexyl]carbamate], in that order: 6.84 and 3.48e-06 M.
For `CNC(=O)[C@H](C)Nc1nc2ccccc2c2nc(-c3cccc(OC)c3)nn12` [Example 102, N^2-[2-(3-methoxyphenyl)[1,2,4]triazolo[1,5-c]quinazolin-5-yl]-N-methyl-L-alaninamide], in that order: 6.61 and 6.01e-07 M.
The like results for `COc1cccc(-c2nc3c4ccccc4nc(N[C@@H](C(N)=O)C(C)C)n3n2)c1` [Example 103, N^2-[2-(3-methoxyphenyl)[1,2,4]triazolo[1,5-c]quinazolin-5-yl]-D-valinamide] were, in that order, 9.46 and 4.43e-09 M.
